Assay results taken from patent US20110027178A1, “IMAGING THE CENTRAL NERVOUS SYSTEM” (priority 2008, published 2011).

Target: T1, P2X7 receptor (Homo sapiens, UniProt Q99572)
T1 construct: expressed in transfected cells; host or cells: HEK.293 cells, transient transfection
T1 sequence (Q99572 1-595): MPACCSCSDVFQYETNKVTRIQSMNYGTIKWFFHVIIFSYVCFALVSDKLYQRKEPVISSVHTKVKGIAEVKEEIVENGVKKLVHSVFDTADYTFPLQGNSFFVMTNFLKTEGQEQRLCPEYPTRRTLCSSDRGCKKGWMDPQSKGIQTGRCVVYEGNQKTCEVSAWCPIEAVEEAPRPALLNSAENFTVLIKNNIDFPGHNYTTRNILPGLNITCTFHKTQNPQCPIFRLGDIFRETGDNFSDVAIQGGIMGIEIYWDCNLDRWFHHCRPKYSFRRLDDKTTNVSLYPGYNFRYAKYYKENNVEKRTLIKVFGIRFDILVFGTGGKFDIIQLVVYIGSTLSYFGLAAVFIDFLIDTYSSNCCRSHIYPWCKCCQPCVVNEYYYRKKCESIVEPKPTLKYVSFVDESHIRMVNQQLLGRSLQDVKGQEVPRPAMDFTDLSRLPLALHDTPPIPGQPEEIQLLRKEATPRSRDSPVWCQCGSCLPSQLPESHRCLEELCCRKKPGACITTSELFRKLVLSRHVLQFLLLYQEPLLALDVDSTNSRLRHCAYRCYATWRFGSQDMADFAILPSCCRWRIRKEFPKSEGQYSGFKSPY
Test: Pore-forming assay (Yo Pro-1 dye uptake), P2X7 receptor functional assay
Assay type: cell-based
Conditions: P2X7 transfected HEK.293 cells, Bz-ATP 30 μM, Yo Pro-1 1 μM, triplicate
Text: Non-radioactive versions of the Imaging Agents illustrated in Table I were screened in a P2X7 receptor functional assay. This assay is described in Example 9 and is based upon the ability of the P2X7 receptor to form a non-selective pore in P2X7 transfected HEK.293 cells upon activation with an agonist, thereby allowing dye to permeate the cells. The non selective P2X channel antagonist used as a reference inhibitor for the evaluation of the non-radioactive compound of the invention was pyridoxal-phosphate-6-azophenyl-2′,4′-disulfonate (PPADS), and the results of the assay are provided in Table I above.
The assay method used was based on the ability of the DNA binding dye, Yo Pro-1 (quinolinium, 4[3-methyl-2(3H)-benzoxazolylidene) methyl]-1-[3-(trimethyl-ammonio) propyl]-[…]) to enter through the dilated or “large pore form” of the P2X7 receptor and to bind to intracellular DNA/RNA whereupon it increases fluorescence intensity. Yo Pro-1 was therefore used to quantify inhibition of P2X7 function. This assay was based on the methods published by Michel et al., (B.J. Pharmacol 1998; 125: 1194-1201).
Initially, HEK.293 cells were transiently transfected using LipofectamineTMLTX (Invitrogen) for 72 hrs with P2X7 cDNA. 48 hours prior to use the cells were seeded into poly-D-lysine coated 96-well black-walled, clear bottomed plates, at a density of 30,000 cells/well. Stock solutions of each test compound were prepared at a concentration of 40 mM in 100% DMSO
Following the 48 hour incubation the culture medium was removed from the transfected cells, the cells were washed once and placed in pre-warmed sucrose assay buffer (Sucrose: 280 mM, KCl: 5 mM, CaCl2: 0.5 mM, glucose: 10 mM, HEPES: 10 mM, N-methyl-D-glucamine: 10 mM; pH7.4). The test compounds were added to the plate at a concentration of 10 μM and 100 nM in triplicate and incubated at 37° C. for 30 minutes. The final DMSO concentration in the assay was 1%. After this time Yo Pro-1 dye and Bz-ATP solution was added at concentrations of 1 μM and 30 μM respectively for 60 minutes at 37° C. The fluorescence was then read at 485 nm excitation and 530 nm emission.
The non-selective P2X channel antagonist PPADS was used as a reference inhibitor in the assay. A dose-response to PPADS was performed on the assay plate using a starting concentration of 200 μM followed by a 1 in 6 serial dilution covering 200 μM to 0.4 nM. For each compound data set, a percentage inhibition value was calculated based on the three assay points generated.

SMILES | % Inhibition (test compound 100 nM) [%] | % Inhibition (test compound 10 μM) [%]
[18F]c1ncccc1Cn1nnnc1-c1cccc(Cl)c1Cl [Non-radioactive Imaging Agent 5] | 10.0 | 69.6
O=C1CSC(=O)N1C(CCc1ccncc1)COc1ccc(-c2cc([N+](=O)[O-])ccc2F)cc1 (stereo not drawn) [Non-radioactive Imaging Agent 2, 3-[1-(2′-Fluoro-5′-nitro-biphenyl-4-yloxymethyl)-3-pyridin-4-yl-propyl]-thiazolidine-2,4-dione] | 22.0 | 72.0
O=C(CC12CC3CC(CC(C3)C1)C2)Nc1cccc2nc(NCCNCCOCC[18F])ccc12 [Non-radioactive Imaging Agent 3] | 0.00 | 62.0
